For 14 compounds, IC50 and TEC/Btk results are on record in patent US20180194762A1 (Pharmacyclics LLC, priority 2017, published 2018).

Read-outs that look alike come from different tables or passages of the source.

Assay type in all cases: biochemical
One assay deals with T1, Btk (Homo sapiens, UniProt Q06187).
T1 construct: purified from insect cells as a full-length construct containing a N-terminal 6X-His tag; His6 (N); made in house; host or cells: insect cells (Method C)
The experiment in a line: Btk in vitro inhibitory activity (one of Method A TR-FRET, Method B electrophoretic mobility shift, Method C radiometric filter binding). In a few lines: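 Method A: TR-FRET with 0.5 nM Btk at [ATP]=Km, EDTA-quenched, 665/615 nm ratio; Ki(app) converted to IC50. Method B: 1 nM full-length His6 human BTK, 1 μM FAM peptide, pH 7.5, mobility-shift product/sum ratio, 12-point 4-parameter fit. Method C: radiometric filter binding, 8 nM His-tagged BTK, 0.2 mg/mL poly-Glu-Tyr.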
A general note: Mobility shift assays separate free from complexed probe on a gel.

Another assay has as its target T2, TEC (Homo sapiens, UniProt P42680).
T2 sequence (P42680 1-631): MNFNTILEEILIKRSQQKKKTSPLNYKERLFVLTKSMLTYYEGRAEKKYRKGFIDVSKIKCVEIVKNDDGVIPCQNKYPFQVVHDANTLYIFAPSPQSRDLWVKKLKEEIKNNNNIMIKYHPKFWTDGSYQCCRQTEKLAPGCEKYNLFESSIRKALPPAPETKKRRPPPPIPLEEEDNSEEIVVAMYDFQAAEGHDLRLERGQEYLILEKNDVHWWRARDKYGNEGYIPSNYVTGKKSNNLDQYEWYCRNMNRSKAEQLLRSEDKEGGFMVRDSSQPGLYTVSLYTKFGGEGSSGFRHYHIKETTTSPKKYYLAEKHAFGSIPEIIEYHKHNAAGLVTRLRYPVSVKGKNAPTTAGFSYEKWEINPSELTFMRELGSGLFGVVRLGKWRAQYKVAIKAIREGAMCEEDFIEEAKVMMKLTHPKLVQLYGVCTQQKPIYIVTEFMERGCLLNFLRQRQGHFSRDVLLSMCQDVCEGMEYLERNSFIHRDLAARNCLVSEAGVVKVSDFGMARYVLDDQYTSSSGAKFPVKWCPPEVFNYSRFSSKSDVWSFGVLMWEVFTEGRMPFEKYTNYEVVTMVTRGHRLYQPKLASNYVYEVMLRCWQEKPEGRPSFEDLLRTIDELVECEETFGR
The experiment in a line: Inhibition of a panel of kinases (in vitro HotSpot kinase assay, 33P-ATP, 1 μM ATP). The settings on record: for IC50: HotSpot kinase assay, 1 μM ATP; for TEC/Btk: ratio of TEC IC50 to Btk IC50 (selectivity). In outline:
(§1)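 Purified kinase enzymes were incubated with an appropriate substrate and 33P-labelled ATP at 1 μM ATP. Inhibition was measured radiometrically from incorporation of the 33P label.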

In a further assay the target is T3, panel of kinases (Homo sapiens, UniProt P51813).
T3 sequence (P51813 1-675): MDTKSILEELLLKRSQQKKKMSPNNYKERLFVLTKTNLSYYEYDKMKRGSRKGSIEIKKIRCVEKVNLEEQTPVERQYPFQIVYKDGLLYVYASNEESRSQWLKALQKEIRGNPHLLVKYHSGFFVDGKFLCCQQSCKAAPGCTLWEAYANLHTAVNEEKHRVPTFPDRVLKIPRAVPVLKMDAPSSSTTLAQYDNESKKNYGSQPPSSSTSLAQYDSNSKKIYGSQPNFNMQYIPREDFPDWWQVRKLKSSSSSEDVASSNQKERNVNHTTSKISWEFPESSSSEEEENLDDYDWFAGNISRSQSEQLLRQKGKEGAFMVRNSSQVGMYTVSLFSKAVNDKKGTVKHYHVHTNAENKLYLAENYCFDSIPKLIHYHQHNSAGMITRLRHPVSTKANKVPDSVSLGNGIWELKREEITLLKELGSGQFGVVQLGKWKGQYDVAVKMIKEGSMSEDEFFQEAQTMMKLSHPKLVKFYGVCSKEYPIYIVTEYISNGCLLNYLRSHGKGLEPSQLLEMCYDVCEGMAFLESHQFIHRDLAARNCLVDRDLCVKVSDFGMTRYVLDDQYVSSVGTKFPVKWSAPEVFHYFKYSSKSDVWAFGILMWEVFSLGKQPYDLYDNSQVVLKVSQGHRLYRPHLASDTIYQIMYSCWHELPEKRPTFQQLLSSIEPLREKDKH
The experiment in a line: Inhibition of a panel of kinases (in vitro HotSpot kinase assay, 33P-ATP, 1 μM ATP), other kinases. The note with it: BMX wild-type, read-out: BMX-WT IC50. In a few lines:
as §1

Where [1] appears, read: wild-type Btk, read-out: Btk-WT IC50.
Where [2] appears, read: method is one of A, B or C, not stated which, read-out: IC50 values against Btk.

T1 sequence (Q06187 whole entry): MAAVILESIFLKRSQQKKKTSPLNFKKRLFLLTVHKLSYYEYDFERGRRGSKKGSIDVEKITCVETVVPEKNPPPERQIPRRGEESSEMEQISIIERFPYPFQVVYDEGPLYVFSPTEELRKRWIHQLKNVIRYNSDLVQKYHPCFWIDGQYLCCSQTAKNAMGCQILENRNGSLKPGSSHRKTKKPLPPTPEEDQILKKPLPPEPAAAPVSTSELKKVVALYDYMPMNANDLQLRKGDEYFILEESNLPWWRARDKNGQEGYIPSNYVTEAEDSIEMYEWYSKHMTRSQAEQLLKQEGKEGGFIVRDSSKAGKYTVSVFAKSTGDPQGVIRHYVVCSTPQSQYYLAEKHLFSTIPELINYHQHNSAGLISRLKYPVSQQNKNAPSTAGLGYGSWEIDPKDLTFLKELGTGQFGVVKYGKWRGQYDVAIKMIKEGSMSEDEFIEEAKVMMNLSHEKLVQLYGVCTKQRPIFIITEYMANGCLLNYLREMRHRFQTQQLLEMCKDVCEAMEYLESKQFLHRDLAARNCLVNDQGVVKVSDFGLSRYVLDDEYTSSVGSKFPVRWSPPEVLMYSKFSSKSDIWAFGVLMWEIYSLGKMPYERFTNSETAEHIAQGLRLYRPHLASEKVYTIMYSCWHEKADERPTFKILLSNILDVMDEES

For the compound `CC(C)(C)c1noc(C(=O)NCc2ccc(-c3ccnc4[nH]nc(OC5CCNC5)c34)cc2F)n1` (centres unmarked) [Example 283, 3-tert-butyl-N-[(2-fluoro-4-{3-[(pyrrolidin-3-yl)oxy]-1H-pyrazolo[3,4-b]pyridin-4-yl}phenyl)methyl]-1,2,4-oxadiazole-5-carboxamide], the IC50 (as a rule, the midpoint of a concentration-inhibition curve) at Btk (setting [1]) came to 10.9 nM; on TEC, 7160 nM; at panel of kinases, 2970 nM.

As to `C=CC(=O)N1CC[C@@H](Nc2n[nH]c3nccc(-c4ccc(CC(=O)Nc5noc(C(C)(C)C)n5)c(F)c4)c23)C1` [Example 135, N-(5-tert-butyl-1,2,4-oxadiazol-3-yl)-2-[2-fluoro-4-(3-{[(3R)-1-(prop-2-enoyl)pyrrolidin-3-yl]amino}-1H-pyrazolo[3,4-b]pyridin-4-yl)phenyl]acetamide], the IC50 on Btk (setting [2]) is less than 10 nM; at Btk (setting [1]) it was 8.87 nM; on TEC it was 475 nM; at panel of kinases it was 226 nM. Besides, the TEC/Btk on TEC is listed as 54.

Turning to `CC1(C(=O)N2CC[C@@H](Nc3n[nH]c4nccc(-c5ccc(C6(NC(=O)c7noc(C(C)(C)C)n7)CC6)cc5)c34)C2)COC1` [Compound 30, (R)-5-(tert-butyl)-N-(1-(4-(3-((1-(3-methyloxetane-3-carbonyl)pyrrolidin-3-yl)amino)-1H-pyrazolo[3,4-b]pyridin-4-yl)phenyl)cyclopropyl)-1,2,4-oxadiazole-3-carboxamide], the IC50 on Btk (setting [1]) worked out at 254 nM; at panel of kinases, 6750 nM. The TEC/Btk at TEC is on record as 39.

On to `CC#CC(=O)N1CC[C@@H](Nc2n[nH]c3nccc(-c4cccc(NC(=O)c5ccc(C(C)(C)C)cc5)c4C)c23)C1` [Compound 10, N-[3-(3-{[(3R)-1-(but-2-ynoyl)pyrrolidin-3-yl]amino}-1H-pyrazolo[3,4-b]pyridin-4-yl)-2-methylphenyl]-4-tert-butylbenzamide], for which the IC50 on Btk (setting [1]) is 13.1 nM; against TEC, 8350 nM; at panel of kinases it was greater than 10000 nM. Also, the TEC/Btk on TEC was determined as 637.

As for `CC#CC(=O)N1CC[C@@H](Nc2n[nH]c3nccc(-c4ccc(C5(NC(=O)c6noc(C(C)(C)C)n6)CC5)cc4)c23)C1` [Compound 28, (R)—N-(1-(4-(3-((1-(but-2-ynoyl)pyrrolidin-3-yl)amino)-1H-pyrazolo[3,4-b]pyridin-4-yl)phenyl)cyclopropyl)-5-(tert-butyl)-1,2,4-oxadiazole-3-carboxamide], the half-inhibitory concentration (IC50) amounted to 0.575 nM on Btk (setting [1]), 200 nM on TEC and 71 nM on panel of kinases. Further, the TEC/Btk at TEC is recorded as 347.

Turning to `CC(C)(C)c1ccc(C(=O)NCc2ccc(-c3ccnc4[nH]nc(N5CC[C@@H](N)C5)c34)cc2F)cc1` [Example 100, N-[(4-{3-[(3R)-3-aminopyrrolidin-1-yl]-1H-pyrazolo[3,4-b]pyridin-4-yl}-2-fluorophenyl)methyl]-4-tert-butylbenzamide], the values for the half-inhibitory concentration (IC50) on Btk (setting [1]), against TEC and at panel of kinases were 13.8 nM, 2970 nM and 1890 nM, respectively. The TEC/Btk on TEC is 215.

Consider `C[C@@H](NC(=O)c1cc(C(C)(C)O)on1)c1ccc(-c2ccnc3[nH]nc(NC4CCN(S(C)(=O)=O)CC4)c23)cc1` [Example 203, 5-(2-hydroxypropan-2-yl)-N-{(1R)-1-[4-(3-{[1-(methanesulfonyl)piperidin-4-yl]amino}-1H-pyrazolo[3,4-b]pyridin-4-yl)phenyl]ethyl}-1,2-oxazole-3-carboxamide], for which the figures for the half-maximal inhibitory concentration (IC50) on Btk (setting [1]), at TEC and at panel of kinases were greater than 1000 nM, greater than 10000 nM and greater than 10000 nM, respectively. Also, on TEC, the TEC/Btk is given as greater than 10000.

On to `C=CC(=O)N1CC[C@@H](Nc2n[nH]c3nccc(-c4ccc(CNC(=O)c5ccn(C(C)(C)C)n5)c(F)c4)c23)C1` [Example 66, 1-tert-butyl-N-{[2-fluoro-4-(3-{[(3R)-1-(prop-2-enoyl)pyrrolidin-3-yl]amino}-1H-pyrazolo[3,4-b]pyridin-4-yl)phenyl]methyl}-1H-pyrazole-3-carboxamide], for which the IC50 on Btk (setting [2]) is less than 10 nM; on Btk (setting [1]), 0.42 nM; against TEC, 403 nM; on panel of kinases it was 219 nM. On TEC, the TEC/Btk is recorded as 959.

`C=CC(=O)N1CC[C@@H](Nc2n[nH]c3nccc(-c4ccc(CNC(=O)c5cnc(C(C)C)o5)c(F)c4)c23)C1` [Example 176, N-{[2-fluoro-4-(3-{[(3R)-1-(prop-2-enoyl)pyrrolidin-3-yl]amino}-1H-pyrazolo[3,4-b]pyridin-4-yl)phenyl]methyl}-2-(propan-2-yl)-1,3-oxazole-5-carboxamide]: the IC50 was less than 10 nM at Btk (setting [2]), 1.49 nM at Btk (setting [1]), 149 nM against TEC and 146 nM at panel of kinases. At TEC, the TEC/Btk is recorded as 100.

On to `C=CC(=O)N1CC[C@@H](Nc2n[nH]c3nccc(-c4cccc(NC(=O)c5noc(C(C)(C)C)n5)c4)c23)C1` [Example 265, 5-tert-butyl-N-[3-(3-{[(3R)-1-(prop-2-enoyl)pyrrolidin-3-yl]amino}-1H-pyrazolo[3,4-b]pyridin-4-yl)phenyl]-1,2,4-oxadiazole-3-carboxamide], for which the IC50 on Btk (setting [1]) stood at 200 nM; at TEC it was 2780 nM; on panel of kinases, 875 nM. The TEC/Btk on TEC is 014.

With `C=CC(=O)N1CC[C@@H](Nc2n[nH]c3nccc(-c4ccc(CNC(=O)c5cc(Cl)on5)c(F)c4)c23)C1` [Example 342, 5-chloro-N-{[2-fluoro-4-(3-{[(3R)-1-(prop-2-enoyl)pyrrolidin-3-yl]amino}-1H-pyrazolo[3,4-b]pyridin-4-yl)phenyl]methyl}-1,2-oxazole-3-carboxamide], the IC50 on Btk (setting [1]) came out at 3.77 nM; at TEC, 210 nM; on panel of kinases, 28.8 nM.

For the compound `C[C@@H](NC(=O)c1nc(C(C)(C)C)no1)c1ccc(-c2ccnc3[nH]nc(N4CCC(N)CC4)c23)cc1F` [Example 188, N-[(1R)-1-{4-[3-(4-aminopiperidin-1-yl)-1H-pyrazolo[3,4-b]pyridin-4-yl]-2-fluorophenyl}ethyl]-3-tert-butyl-1,2,4-oxadiazole-5-carboxamide], the half-maximal inhibitory concentration (IC50) on Btk (setting [1]) turned out to be 0.267 nM; at TEC it was 802 nM; at panel of kinases it was 1520 nM. Moreover, the TEC/Btk at TEC is on record as 3004.

On to `O=C(NCc1ccc(-c2ccnc3[nH]nc(N[C@@H]4CCNC4)c23)cc1F)c1ccc(C2CC2)cc1` [Compound 35, 4-cyclopropyl-N-{[2-fluoro-4-(3-{[(3R)-pyrrolidin-3-yl]amino}-1H-pyrazolo[3,4-b]pyridin-4-yl)phenyl]methyl}benzamide], for which the IC50 on Btk (setting [1]) came out at 505 nM; against TEC, 7000 nM; on panel of kinases, 8480 nM. Further, the TEC/Btk on TEC turned out to be 14.

For the compound `CC(C)(C)c1noc(C(=O)NCc2ccc(-c3ccnc4[nH]nc(C5CC5)c34)cc2F)n1` [Example 255, 3-tert-butyl-N-{[4-(3-cyclopropyl-1H-pyrazolo[3,4-b]pyridin-4-yl)-2-fluorophenyl]methyl}-1,2,4-oxadiazole-5-carboxamide], the half-inhibitory concentration (IC50) on Btk (setting [1]) came out at 1.26 nM; against TEC, 1630 nM; on panel of kinases, 1360 nM. Also, the TEC/Btk on TEC came out at 1294.
